Residue numbers refer to the chain shown, from its start. Where two headings read alike, the source gives them in different places.
Key:
[1] = biological target: T1, human androgen receptor W741L mutant (Homo sapiens, UniProt P10275, W742L); test: Cell-based transactivation assay for human androgen receptor mutant W741L
T1 construct: expressed in transfected cells; host or cells: PC-3 cells, transient transfection with a pSG5-derived plasmid
T1 sequence (P10275 1-920 W742L): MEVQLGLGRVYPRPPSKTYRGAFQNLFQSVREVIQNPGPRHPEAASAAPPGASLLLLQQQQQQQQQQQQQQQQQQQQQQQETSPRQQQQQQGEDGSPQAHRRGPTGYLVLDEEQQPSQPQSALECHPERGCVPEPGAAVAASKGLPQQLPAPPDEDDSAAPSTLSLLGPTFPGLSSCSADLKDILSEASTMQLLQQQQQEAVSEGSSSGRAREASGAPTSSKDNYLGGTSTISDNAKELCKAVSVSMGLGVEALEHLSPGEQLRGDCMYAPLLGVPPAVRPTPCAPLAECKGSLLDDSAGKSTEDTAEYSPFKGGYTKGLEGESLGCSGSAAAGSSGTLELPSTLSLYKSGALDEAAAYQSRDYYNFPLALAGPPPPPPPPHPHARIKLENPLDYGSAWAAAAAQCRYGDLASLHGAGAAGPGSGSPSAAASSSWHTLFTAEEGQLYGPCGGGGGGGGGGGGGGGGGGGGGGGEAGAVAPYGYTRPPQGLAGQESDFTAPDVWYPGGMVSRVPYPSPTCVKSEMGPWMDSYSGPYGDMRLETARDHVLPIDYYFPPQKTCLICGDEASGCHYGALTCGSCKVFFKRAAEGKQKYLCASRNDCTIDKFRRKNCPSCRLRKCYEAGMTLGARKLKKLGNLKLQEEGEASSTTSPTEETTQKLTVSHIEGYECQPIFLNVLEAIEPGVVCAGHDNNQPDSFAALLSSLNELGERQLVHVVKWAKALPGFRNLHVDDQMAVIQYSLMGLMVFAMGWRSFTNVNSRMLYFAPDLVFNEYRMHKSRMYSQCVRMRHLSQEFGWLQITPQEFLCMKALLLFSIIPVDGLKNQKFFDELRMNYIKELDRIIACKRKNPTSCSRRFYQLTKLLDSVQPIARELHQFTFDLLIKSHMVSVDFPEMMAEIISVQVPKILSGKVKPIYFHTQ
Experimental: Cell-Based Transactivation Assay for Human Androgen Receptor Mutant W741L or W741C
PC-3 cells (Kaighn et al., Invest. Urol. 17:16-23, 1979) were grown in 5% charcoal-stripped medium and seeded at a concentration of 10000 cells per well in a 96-well plate. They were transiently transfected with a pSG5-derived plasmid (#216201 from Stratagene, La Jolla, Calif., USA) coding for the human androgen receptor W741L or W741C mutant Mara et al., Cancer Research, 63: 149-153, 2003) and an MMTV-Luciferase reporter plasmid based on pGL4.14 14 (#E6691, Promega Corporation, Madison, Wis., USA). The compound to be tested was added at a concentration range varying from 1×10^−9 to 1×10 M together with 1×10^−10 R1881. After 24 h incubation at 37° C. in a 5% CO2 atmosphere, 100 μl of Steady Glo Lysis and Detection reagent (Steady Glo Luciferase assay system E2550 from Promega Corporation. Madison, Wis., USA) were added. Antagonistic activity was determined by measuring Luciferase activity in a Victor 3 Luminometer (PerkinElmer, Waltham, Mass., USA) using the Steady Glo Luciferase Assay (E2550, Promega). IC50 values were calculated for anti-androgenic activity.

[2] = biological target: T2, wild-type human androgen receptor (Homo sapiens, UniProt P10275); test: Cell-based transactivation assay for wild-type human androgen receptor (PC-3 cells, MMTV-luciferase reporter)
T2 construct: expressed in transfected cells
T2 sequence (P10275 1-920): T1 sequence (P10275 1-920 W742L) with L742W

[3] = tested on: VCaP cells; test: Proliferation assay with VCaP cells; type: cell-based; details: Homo sapiens, 168 h, R1881 (1×10^−10) stimulated growth
Experimental: Proliferation Assay with VCaP Cells
VCaP cells ((Korenchuk et al., In Vivo 15: 163-168, 2001)) were seeded at 16 000 cells/well in 96-well plates in DMEM (F0445, Biochrom AG, Berlin, Germany) with phenol red supplemented with 10% charcoal-stripped serum. After 1 day, the cells were treated with R1881 (1×10^−10) and compound (day 0). Cell number was determined by Alamar Blue (DAL1100, Invitrogen, Life Technologies, Lohne, Germany) staining (2.5 h) at day 0 and day 7. Fluorescence was determined in Victor3 (Excitation 530 nm; emission 590 nm). Stimulated growth was defined as the signal measured at day 7 for cells treated only with R1881. Basal level was defined as the signal measured at day 7 for cells grown without R1881.

[4] = biological target: T3, human androgen receptor E709Y mutant (Homo sapiens, UniProt P10275, E710Y); test: Cell-based transactivation assay for human androgen receptor mutant E709Y
T3 construct: expressed in transfected cells; host or cells: PC-3 cells, transient transfection with a pSG5-derived plasmid
T3 sequence (P10275 1-920 E710Y): T1 sequence (P10275 1-920 W742L) with E710Y, L742W
Experimental: Cell-Based Transactivation Assay for Human Androgen Receptor Mutant E709Y
PC-3 cells (Kaighn et al., Invest. Urol. 17:16-23, 1979) were grown in 5% charcoal-stripped medium and seeded at a concentration of 10000 cells per well in a 96-well plate. They were transiently transfected with a pSG5-derived plasmid (#216201 from Stratagene, La Jolla, Calif., USA) coding for the human androgen receptor E709Y mutant (Georget et al., Molecular Endocrinology, 20(4): 724-734, 2006) and an MMTV-Luciferase reporter plasmid based on pGL4.14 14 (#E6691, Promega Corporation, Madison, Wis., USA). The compound to be tested was added at a concentration range varying from 1×10^−9 to 1×10^−6 M together with 1×10^−10 R1881. After 24 h incubation at 37° C. in a 5% CO2 atmosphere, 100 μl of Steady Glo Lysis and Detection reagent (Steady Glo Luciferase assay system E2550 from Promega Corporation. Madison, Wis., USA) were added. Antagonistic activity was determined by measuring Luciferase activity in a Victor 3 Luminometer (PerkinElmer, Waltham, Mass., USA) using the Steady Glo Luciferase Assay (E2550, Promega). IC50 values were calculated for anti-androgenic activity.

[5] = tested on: LNCaP cells; test: Proliferation assay with LNCaP cells; type: cell-based; details: Homo sapiens, 168 h, R1881 (1×10^−10) stimulated growth, day 7, read-out: inhibition IC50 (LNCaP)
Experimental: Proliferation Assay with LNCaP Cells
LNCaP cells (Horoszewicz et al., in “Models for Prostate Cancer” (ed. G. P. Murphy), Alan R. Liss, New York 1981, p. 115-132; Horoszewicz et al., Cancer Res. 43:1809-1818, 1983) were seeded at 2000 cells/well in 96-well plates in RPMI (F1235, Biochrom AG, Berlin, Germany) without phenol red supplemented with 5% charcoal-stripped serum. After 3 days, the cells were treated with R1881) (1×10^−10) and compound (day 0). Cell number was determined by Alamar Blue (DAL1100, Invitrogen, Life Technologies, Lohne, Germany) staining (2.5 h) at day 0 and day 7. Fluorescence was determined in Victor3 (Excitation 530 nm; emission 590 nm). Stimulated growth was defined as the signal measured at day 7 for cells treated only with R1881. Basal level was defined as the signal measured at day 7 for cells grown without R1881.

[6] = day 7, read-out: Antiproliferative activity VCaP IC50
[7] = day 7, read-out: inhibition IC50 (VCaP)

Structure (SMILES)	IC50 [1]	EC50 [2]	IC50 [3, 6]	IC50 [4]	IC50 [5]	IC50 [3, 7]
COc1ccc(CN2C(=S)N(c3ccc(C#N)c(C(F)(F)F)c3)C(=O)C2(C)C)cc1 [Comparative data^4]	379 nM	6810 nM	860 nM	80.2 nM	–	–
CC1(C)C(=O)N(c2ccc(C#N)c(C(F)(F)F)c2)C(=S)N1Cc1ccc(OCCN2CCOCC2)nc1 [Example 3, 4-[4,4-Dimethyl-3-({6-[2-(morpholin-4-yl)ethoxy]pyridin-3-yl}methyl)-5-oxo-2-thioxoimidazolidin-1-yl]-2-(trifluoromethyl)benzonitrile]	118 nM	> 10000 nM	176 nM	79.5 nM	127 nM	–
CC1(C)C(=O)N(c2ccc(C#N)c(C(F)(F)F)c2)C(=S)N1Cc1ccc(OC2CCOCC2)nc1 [Example 5, 4-(4,4-Dimethyl-5-oxo-3-{[6-(tetrahydro-2H-pyran-4-yloxy)pyridin-3-yl]methyl}-2-thioxoimidazolidin-1-yl)-2-(trifluoromethyl)benzonitrile]	49.7 nM	> 10000 nM	–	44.8 nM	200 nM	–
CC1(C)C(=O)N(c2ccc(C#N)c(C(F)(F)F)c2)C(=S)N1Cc1cnc(N2CCOCC2)nc1N [Example 6, 4-(3-{[4-Amino-2-(morpholin-4-yl)pyrimidin-5-yl]methyl}-4,4-dimethyl-5-oxo-2-thioxoimidazolidin-1-yl)-2-(trifluoromethyl)benzonitrile]	92.8 nM	5000 nM	–	19.3 nM	–	–
CC1CN(c2ccc(CN3C(=S)N(c4ccc(C#N)c(C(F)(F)F)c4)C(=O)C3(C)C)cn2)CCO1 (stereo not shown) [Example 7, 4-(4,4-Dimethyl-3-{[6-(2-methylmorpholin-4-yl)pyridin-3-yl]methyl}-5-oxo-2-thioxoimidazolidin-1-yl)-2-(trifluoromethyl)benzonitrile]	49.1 nM	> 10000 nM	106 nM	22.6 nM	118 nM	106 nM
COc1ccc(CN2C(=S)N(c3ccc(C#N)c(C(F)(F)F)c3)C(=O)C2(C)C)cn1 [Example 8, 4-{3-[(6-Methoxypyridin-3-yl)methyl]-4,4-dimethyl-5-oxo-2-thioxoimidazolidin-1-yl}-2-(trifluoromethyl)benzonitrile]	49.2 nM	8860 nM	92.5 nM	9.18 nM	120 nM	92 nM
Cc1nccn1-c1ccc(CN2C(=S)N(c3ccc(C#N)c(C(F)(F)F)c3)C(=O)C2(C)C)cn1 [Example 15, 4-(4,4-Dimethyl-3-{[6-(2-methyl-1H-imidazol-1-yl)pyridin-3-yl]methyl}-5-oxo-2-thioxoimidazolidin-1-yl)-2-(trifluoromethyl)benzonitrile]	13.2 nM	> 10000 nM	253 nM	29.9 nM	116 nM	–
CC1(C)CC(=O)N(c2ccc(CN3C(=S)N(c4ccc(C#N)c(C(F)(F)F)c4)C(=O)C3(C)C)cn2)C1 [Example 16, 4-(3-{[6-(4,4-Dimethyl-2-oxopyrrolidin-1-yl)pyridin-3-yl]methyl}-4,4-dimethyl-5-oxo-2-thioxoimidazolidin-1-yl)-2-(trifluoromethyl)benzonitrile]	78.5 nM	> 10000 nM	–	143 nM	121 nM	–
CN=S1(=O)CCN(c2ccc(CN3C(=S)N(c4ccc(C#N)c(C(F)(F)F)c4)C(=O)C3(C)C)cn2)CC1 [Example 22, 4-[4,4-Dimethyl-3-({6-[1-(methylimino)-1-oxido-1λ^6-thiomorpholin-4-yl]pyridin-3-yl}methyl)-5-oxo-2-thioxoimidazolidin-1-yl]-2-(trifluoromethyl)benzonitrile]	57.4 nM	> 10000 nM	–	–	135 nM	–

Reference: patent publication US20120251551A1, “Substituted (Heteroarylmethyl)thiohydantoins” (BAYER PHARMA AKTIENGESELLSCHAFT, priority 2009, published 2012)
